The supplement of paper PMC11451515

Experiments:
Settings in all cases: 48 h
SEM cells [1] = test: cell viability relative to DMSO control; higher = less cytotoxic
In short: (§1)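 Library compounds in DMSO were pin-dosed in an 11-point threefold series (47 μM to 0.79 nM) onto leukemia cells in 1536-well plates (5 μl). Plates held 500 cells/well of NOMO1 or SEM or 1000 cells/well of P12-Ichikawa, each adapted for at least four passages in each medium. Luminescence was read with CellTiter-Glo One after 48 h at 37°C. Viability means the per-plate percentage relative to DMSO wells, using cell-free wells as background.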

NOMO1 [2] = test: as above
In short: as §1

P12-Ichikawa [3] = test: as above
In short: as §1

SEM cells [4] = test: AUC of viability dose-response curve (% viability x log10 dose units); higher = less sensitive
In short: (§2)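 In 1536-well plates, leukemia cells adapted to each medium (500 or 1000 cells/well) were exposed for 48 h at 37°C to library compounds in DMSO across 11 threefold doses, 47 μM down to 0.79 nM. Viability was read by CellTiter-Glo One luminescence and normalised per plate to DMSO and cell-free wells. A four-parameter log-logistic fit over log10 doses was integrated by trapezoidal rule. This yielded the area under the curve, with over-full-viability curves scaled and quality-control failures dropped.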

NOMO1 [5] = test: as above
In short: as §2

P12-Ichikawa [6] = test: as above
In short: as §2

CCOC(=O)c1ccc(OC(=O)CCCCCNC(=N)N)cc1
cell viability [%]
Settings	NOMO1 [2]	P12-Ichikawa [3]	SEM cells [1]
HPLM + 10% dialyzed FBS, 0.000781 µM	126	117	111
HPLM + 10% dialyzed FBS, 0.00234 µM	115	121	91.3
HPLM + 10% dialyzed FBS, 0.00702 µM	122	123	117
HPLM + 10% dialyzed FBS, 0.0211 µM	116	122	120
HPLM + 10% dialyzed FBS, 0.0632 µM	137	125	123
HPLM + 10% dialyzed FBS, 0.19 µM	128	126	131
HPLM + 10% dialyzed FBS, 0.569 µM	127	124	132
HPLM + 10% dialyzed FBS, 1.71 µM	84.6	76	127
HPLM + 10% dialyzed FBS, 5.12 µM	91.8	10.7	120
HPLM + 10% dialyzed FBS, 15.4 µM	62.4	16.3	57.9
HPLM + 10% dialyzed FBS, 46.1 µM	55	17.4	39.8
RPMI 5 mM glucose + 10% FBS, 0.000781 µM	117	–	116
RPMI 5 mM glucose + 10% FBS, 0.00234 µM	119	–	108
RPMI 5 mM glucose + 10% FBS, 0.00702 µM	124	–	134
RPMI 5 mM glucose + 10% FBS, 0.0211 µM	114	–	109
RPMI 5 mM glucose + 10% FBS, 0.0632 µM	131	–	130
RPMI 5 mM glucose + 10% FBS, 0.19 µM	128	–	140
RPMI 5 mM glucose + 10% FBS, 0.569 µM	114	–	141
RPMI 5 mM glucose + 10% FBS, 1.71 µM	132	–	105
RPMI 5 mM glucose + 10% FBS, 5.12 µM	77.3	–	45.9
RPMI 5 mM glucose + 10% FBS, 15.4 µM	83	–	31.8
RPMI 5 mM glucose + 10% FBS, 46.1 µM	104	–	27.2
RPMI 5 mM glucose + 10% dialyzed FBS, 0.000781 µM	116	–	99.1
RPMI 5 mM glucose + 10% dialyzed FBS, 0.00234 µM	110	–	86.9
RPMI 5 mM glucose + 10% dialyzed FBS, 0.00702 µM	135	–	142
RPMI 5 mM glucose + 10% dialyzed FBS, 0.0211 µM	134	–	132
RPMI 5 mM glucose + 10% dialyzed FBS, 0.0632 µM	114	–	109
RPMI 5 mM glucose + 10% dialyzed FBS, 0.19 µM	142	–	117
RPMI 5 mM glucose + 10% dialyzed FBS, 0.569 µM	137	–	123
RPMI 5 mM glucose + 10% dialyzed FBS, 1.71 µM	154	–	125
RPMI 5 mM glucose + 10% dialyzed FBS, 5.12 µM	85.7	–	95.7
RPMI 5 mM glucose + 10% dialyzed FBS, 15.4 µM	81.8	–	37.8
RPMI 5 mM glucose + 10% dialyzed FBS, 46.1 µM	91.2	–	26.4

AUC of viability dose-response curve
Settings	NOMO1 [5]	P12-Ichikawa [6]	SEM cells [4]
HPLM + 10% dialyzed FBS	410	354	436
RPMI 5 mM glucose + 10% FBS	444	413	385
RPMI 5 mM glucose + 10% dialyzed FBS	437	407	418

C[S+](=O)([O-])Nc1ccc([N+](=O)[O-])cc1Oc1ccccc1
cell viability [%]
Settings	NOMO1 [2]	P12-Ichikawa [3]	SEM cells [1]
HPLM + 10% dialyzed FBS, 0.000781 µM	121	114	95.8
HPLM + 10% dialyzed FBS, 0.00234 µM	127	115	103
HPLM + 10% dialyzed FBS, 0.00702 µM	118	111	99.8
HPLM + 10% dialyzed FBS, 0.0211 µM	96.4	120	104
HPLM + 10% dialyzed FBS, 0.0632 µM	121	112	117
HPLM + 10% dialyzed FBS, 0.19 µM	116	115	121
HPLM + 10% dialyzed FBS, 0.569 µM	122	118	107
HPLM + 10% dialyzed FBS, 1.71 µM	107	109	104
HPLM + 10% dialyzed FBS, 5.12 µM	103	109	107
HPLM + 10% dialyzed FBS, 15.4 µM	101	102	109
HPLM + 10% dialyzed FBS, 46.1 µM	70.8	59.4	62.9
RPMI 5 mM glucose + 10% FBS, 0.000781 µM	109	122	88.4
RPMI 5 mM glucose + 10% FBS, 0.00234 µM	98.4	121	111
RPMI 5 mM glucose + 10% FBS, 0.00702 µM	104	120	98.6
RPMI 5 mM glucose + 10% FBS, 0.0211 µM	110	119	90.5
RPMI 5 mM glucose + 10% FBS, 0.0632 µM	108	120	106
RPMI 5 mM glucose + 10% FBS, 0.19 µM	93.5	122	95.7
RPMI 5 mM glucose + 10% FBS, 0.569 µM	104	116	108
RPMI 5 mM glucose + 10% FBS, 1.71 µM	96.7	111	105
RPMI 5 mM glucose + 10% FBS, 5.12 µM	101	116	103
RPMI 5 mM glucose + 10% FBS, 15.4 µM	98.1	112	82.7
RPMI 5 mM glucose + 10% FBS, 46.1 µM	60.6	28.5	17.2
RPMI 5 mM glucose + 10% dialyzed FBS, 0.000781 µM	103	110	103
RPMI 5 mM glucose + 10% dialyzed FBS, 0.00234 µM	116	108	112
RPMI 5 mM glucose + 10% dialyzed FBS, 0.00702 µM	96	114	124
RPMI 5 mM glucose + 10% dialyzed FBS, 0.0211 µM	112	113	110
RPMI 5 mM glucose + 10% dialyzed FBS, 0.0632 µM	101	121	109
RPMI 5 mM glucose + 10% dialyzed FBS, 0.19 µM	112	110	102
RPMI 5 mM glucose + 10% dialyzed FBS, 0.569 µM	98.2	117	95.8
RPMI 5 mM glucose + 10% dialyzed FBS, 1.71 µM	106	103	106
RPMI 5 mM glucose + 10% dialyzed FBS, 5.12 µM	110	106	106
RPMI 5 mM glucose + 10% dialyzed FBS, 15.4 µM	112	103	104
RPMI 5 mM glucose + 10% dialyzed FBS, 46.1 µM	47.1	48.7	54.3

AUC of viability dose-response curve
Settings	NOMO1 [5]	P12-Ichikawa [6]	SEM cells [4]
HPLM + 10% dialyzed FBS	452	461	467
RPMI 5 mM glucose + 10% FBS	465	456	449
RPMI 5 mM glucose + 10% dialyzed FBS	464	460	464

CN[C@H]1CCC2=CC(=C(OC)C(=C2C/3=C/C=C(OC)\C(=O)/C=C13)OC)OC
cell viability [%]
Settings	NOMO1 [2]	P12-Ichikawa [3]	SEM cells [1]
HPLM + 10% dialyzed FBS, 0.000781 µM	119	107	108
HPLM + 10% dialyzed FBS, 0.00234 µM	96	113	102
HPLM + 10% dialyzed FBS, 0.00702 µM	75.2	104	64.8
HPLM + 10% dialyzed FBS, 0.0211 µM	30.1	12.9	23
HPLM + 10% dialyzed FBS, 0.0632 µM	32.9	19.9	24.1
HPLM + 10% dialyzed FBS, 0.19 µM	38.4	11.1	28.6
HPLM + 10% dialyzed FBS, 0.569 µM	43.5	11.2	23.3
HPLM + 10% dialyzed FBS, 1.71 µM	40.9	8.53	18.4
HPLM + 10% dialyzed FBS, 5.12 µM	31.4	9.25	13.4
HPLM + 10% dialyzed FBS, 15.4 µM	33.9	7.37	12
HPLM + 10% dialyzed FBS, 46.1 µM	25.8	3.31	4.23
RPMI 5 mM glucose + 10% FBS, 0.000781 µM	120	113	123
RPMI 5 mM glucose + 10% FBS, 0.00234 µM	109	118	122
RPMI 5 mM glucose + 10% FBS, 0.00702 µM	90.7	102	85
RPMI 5 mM glucose + 10% FBS, 0.0211 µM	22.8	15.9	16.8
RPMI 5 mM glucose + 10% FBS, 0.0632 µM	22.3	22.2	20.8
RPMI 5 mM glucose + 10% FBS, 0.19 µM	24.5	13.3	21.6
RPMI 5 mM glucose + 10% FBS, 0.569 µM	25.4	9.95	18
RPMI 5 mM glucose + 10% FBS, 1.71 µM	22.4	9.19	14.3
RPMI 5 mM glucose + 10% FBS, 5.12 µM	21.1	7.3	9.18
RPMI 5 mM glucose + 10% FBS, 15.4 µM	17.1	6.54	7.14
RPMI 5 mM glucose + 10% FBS, 46.1 µM	10.4	2.29	2.84
RPMI 5 mM glucose + 10% dialyzed FBS, 0.000781 µM	108	119	97.1
RPMI 5 mM glucose + 10% dialyzed FBS, 0.00234 µM	97.1	118	88.9
RPMI 5 mM glucose + 10% dialyzed FBS, 0.00702 µM	102	102	62.8
RPMI 5 mM glucose + 10% dialyzed FBS, 0.0211 µM	23.5	21.1	17.8
RPMI 5 mM glucose + 10% dialyzed FBS, 0.0632 µM	31.9	33.4	21.4
RPMI 5 mM glucose + 10% dialyzed FBS, 0.19 µM	28.3	19	23.9
RPMI 5 mM glucose + 10% dialyzed FBS, 0.569 µM	27.9	15.6	20.4
RPMI 5 mM glucose + 10% dialyzed FBS, 1.71 µM	28.7	11.3	12.6
RPMI 5 mM glucose + 10% dialyzed FBS, 5.12 µM	23.1	9.48	9.12
RPMI 5 mM glucose + 10% dialyzed FBS, 15.4 µM	21.9	8.81	7.84
RPMI 5 mM glucose + 10% dialyzed FBS, 46.1 µM	14.3	4.1	3.33

AUC of viability dose-response curve
Settings	NOMO1 [5]	P12-Ichikawa [6]	SEM cells [4]
HPLM + 10% dialyzed FBS	205	151	159
RPMI 5 mM glucose + 10% FBS	174	147	144
RPMI 5 mM glucose + 10% dialyzed FBS	206	158	148
